How the values were obtained:
Assay in all cases: relative viability (nuclei count vs DMSO), 5 days (fraction); higher = more cells survive
[1] = tested on: NCI-H1299
Procedure, shortened: (§1)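 The day after seeding in 1536-well plates, lung cancer cell lines were treated by pin tool with a single drug, or with a fixed anchor-drug dose together with five library-drug doses (not always all listed) in √10 steps. After 5 days, a combined fix-and-stain solution (final 0.05% Triton X-100, 1% formaldehyde, 1 ug/ml Hoechst) was added. Nuclei counted on 4× images gave relative viability as treated counts over vehicle counts, reported as the median of duplicate plates.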

[2] = tested on: NCI-H2405
Procedure, shortened: as §1

[3] = tested on: NCI-H1703
Procedure, shortened: as §1

[4] = tested on: NCI-H2009
Procedure, shortened: as §1

[5] = tested on: EBC-1
Procedure, shortened: as §1

[6] = tested on: IA-LM
Procedure, shortened: as §1

[7] = tested on: LOU-NH91
Procedure, shortened: as §1

[8] = tested on: Calu-6
Procedure, shortened: as §1

[9] = tested on: NCI-H1623
Procedure, shortened: as §1

[10] = tested on: NCI-H647
Procedure, shortened: as §1

[11] = tested on: A549
Procedure, shortened: as §1

## Cc1cn(-c2cc(NC(=O)c3ccc(C)c(Nc4nccc(-c5cccnc5)n4)c3)cc(C(F)(F)F)c2)cn1 [Nilotinib] + COc1cc2c(Oc3ccc(NC(=O)C4(C(=O)Nc5ccc(F)cc5)CC4)cc3F)ccnc2cc1OCCCN1CCOCC1 [Foretinib] (partner 0.25 µM)
[1]; first compound 0.001 µM
  relative viability: 1.11
[1]; first compound 0.01 µM
  relative viability: 1.17
[1]; first compound 0.03162 µM
  relative viability: 1.19
[1]; first compound 0.1 µM
  relative viability: 1.07
[2]; first compound 0.001 µM
  relative viability: 1.05
[2]; first compound 0.003162 µM
  relative viability: 1.05
[2]; first compound 0.01 µM
  relative viability: 1.03
[2]; first compound 0.03162 µM
  relative viability: 0.956
[2]; first compound 0.1 µM
  relative viability: 0.98
[3]; first compound 0.001 µM
  relative viability: 0.337
[3]; first compound 0.1 µM
  relative viability: 0.409
[4]; first compound 0.001 µM
  relative viability: 1.12
[4]; first compound 0.003162 µM
  relative viability: 1.41
[4]; first compound 0.01 µM
  relative viability: 1.32
[4]; first compound 0.03162 µM
  relative viability: 1.16
[4]; first compound 0.1 µM
  relative viability: 1.1
[5]; first compound 0.001 µM
  relative viability: 0.0869
[5]; first compound 0.003162 µM
  relative viability: 0.101
[5]; first compound 0.01 µM
  relative viability: 0.105
[5]; first compound 0.1 µM
  relative viability: 0.112
[6]; first compound 0.001 µM
  relative viability: 1.14
[6]; first compound 0.003162 µM
  relative viability: 1.23
[6]; first compound 0.01 µM
  relative viability: 1.33
[6]; first compound 0.1 µM
  relative viability: 1.17
[7]; first compound 0.001 µM
  relative viability: 0.995
[7]; first compound 0.003162 µM
  relative viability: 0.961
[7]; first compound 0.01 µM
  relative viability: 0.985
[7]; first compound 0.03162 µM
  relative viability: 0.935
[7]; first compound 0.1 µM
  relative viability: 0.92
[8]; first compound 0.001 µM
  relative viability: 0.726
[8]; first compound 0.003162 µM
  relative viability: 0.897
[8]; first compound 0.01 µM
  relative viability: 0.934
[8]; first compound 0.03162 µM
  relative viability: 0.644
[8]; first compound 0.1 µM
  relative viability: 0.801
[9]; first compound 0.001 µM
  relative viability: 0.789
[9]; first compound 0.003162 µM
  relative viability: 0.815
[9]; first compound 0.01 µM
  relative viability: 0.873
[9]; first compound 0.03162 µM
  relative viability: 0.667
[9]; first compound 0.1 µM
  relative viability: 0.791
[10]; first compound 0.001 µM
  relative viability: 1.09
[10]; first compound 0.003162 µM
  relative viability: 1.16
[10]; first compound 0.01 µM
  relative viability: 1.34
[10]; first compound 0.03162 µM
  relative viability: 0.879
[10]; first compound 0.1 µM
  relative viability: 0.86
[11]; first compound 0.001 µM
  relative viability: 1.03
[11]; first compound 0.01 µM
  relative viability: 1.15
[11]; first compound 0.1 µM
  relative viability: 0.95

## CCNC(=O)c1noc(-c2cc(C(C)C)c(O)cc2O)c1-c1ccc(CN2CCOCC2)cc1 [Luminespib] + N=C(N)NC(=N)NCCc1ccccc1 [Phenformin] (partner 250 µM)
[2]; first compound 0.002 µM
  relative viability: 0.417
[2]; first compound 0.006325 µM
  relative viability: 0.314
[2]; first compound 0.02 µM
  relative viability: 0.514
[2]; first compound 0.06325 µM
  relative viability: 0.193
[2]; first compound 0.2 µM
  relative viability: 0.196
[4]; first compound 0.002 µM
  relative viability: 0.543
[4]; first compound 0.006325 µM
  relative viability: 0.44
[4]; first compound 0.02 µM
  relative viability: 0.487
[4]; first compound 0.06325 µM
  relative viability: 0.0851
[4]; first compound 0.2 µM
  relative viability: 0.103
[7]; first compound 0.002 µM
  relative viability: 0.741
[7]; first compound 0.006325 µM
  relative viability: 0.716
[7]; first compound 0.02 µM
  relative viability: 0.525
[7]; first compound 0.06325 µM
  relative viability: 0.287
[7]; first compound 0.2 µM
  relative viability: 0.322
[9]; first compound 0.002 µM
  relative viability: 0.55
[9]; first compound 0.006325 µM
  relative viability: 0.536
[9]; first compound 0.02 µM
  relative viability: 0.493
[9]; first compound 0.06325 µM
  relative viability: 0.407
[9]; first compound 0.2 µM
  relative viability: 0.307
[10]; first compound 0.002 µM
  relative viability: 0.396
[10]; first compound 0.006325 µM
  relative viability: 0.504
[10]; first compound 0.02 µM
  relative viability: 0.429
[10]; first compound 0.06325 µM
  relative viability: 0.0796
[10]; first compound 0.2 µM
  relative viability: 0.0823
[11]; first compound 0.002 µM
  relative viability: 0.166
[11]; first compound 0.006325 µM
  relative viability: 0.132
[11]; first compound 0.02 µM
  relative viability: 0.0856
[11]; first compound 0.06325 µM
  relative viability: 0.0194
[11]; first compound 0.2 µM
  relative viability: 0.0225

## CN1CCN(CCOc2cc(OC3CCOCC3)c3c(Nc4c(Cl)ccc5c4OCO5)ncnc3c2)CC1 [Saracatinib] + N=C(N)NC(=N)NCCc1ccccc1 [Phenformin] (partner 250 µM)
[2]; first compound 0.02 µM
  relative viability: 0.406
[2]; first compound 0.2 µM
  relative viability: 0.328
[2]; first compound 0.6325 µM
  relative viability: 0.304
[2]; first compound 2 µM
  relative viability: 0.185
[4]; first compound 0.02 µM
  relative viability: 0.45
[4]; first compound 0.2 µM
  relative viability: 0.428
[4]; first compound 0.6325 µM
  relative viability: 0.389
[4]; first compound 2 µM
  relative viability: 0.334
[7]; first compound 0.02 µM
  relative viability: 0.648
[7]; first compound 0.2 µM
  relative viability: 0.47
[7]; first compound 0.6325 µM
  relative viability: 0.553
[7]; first compound 2 µM
  relative viability: 0.403
[9]; first compound 0.02 µM
  relative viability: 0.619
[9]; first compound 0.2 µM
  relative viability: 0.53
[9]; first compound 0.6325 µM
  relative viability: 0.297
[9]; first compound 2 µM
  relative viability: 0.395
[10]; first compound 0.02 µM
  relative viability: 0.584
[10]; first compound 0.2 µM
  relative viability: 0.362
[10]; first compound 0.6325 µM
  relative viability: 0.5
[10]; first compound 2 µM
  relative viability: 0.308
[11]; first compound 0.02 µM
  relative viability: 0.161
[11]; first compound 0.2 µM
  relative viability: 0.121
[11]; first compound 0.6325 µM
  relative viability: 0.156
[11]; first compound 2 µM
  relative viability: 0.154

## Cc1cn(-c2cc(NC(=O)c3ccc(C)c(Nc4nccc(-c5cccnc5)n4)c3)cc(C(F)(F)F)c2)cn1 [Nilotinib] + Cc1nc(Nc2ncc(C(=O)Nc3c(C)cccc3Cl)s2)cc(N2CCN(CCO)CC2)n1 [Dasatinib] (partner 0.075 µM)
[2]; first compound 0.001 µM
  relative viability: 0.219
[2]; first compound 0.003162 µM
  relative viability: 0.205
[2]; first compound 0.01 µM
  relative viability: 0.214
[2]; first compound 0.03162 µM
  relative viability: 0.221
[2]; first compound 0.1 µM
  relative viability: 0.207
[4]; first compound 0.001 µM
  relative viability: 0.278
[4]; first compound 0.003162 µM
  relative viability: 0.258
[4]; first compound 0.01 µM
  relative viability: 0.261
[4]; first compound 0.03162 µM
  relative viability: 0.212
[4]; first compound 0.1 µM
  relative viability: 0.199
[7]; first compound 0.001 µM
  relative viability: 0.524
[7]; first compound 0.003162 µM
  relative viability: 0.619
[7]; first compound 0.01 µM
  relative viability: 0.569
[7]; first compound 0.03162 µM
  relative viability: 0.489
[7]; first compound 0.1 µM
  relative viability: 0.583
[9]; first compound 0.001 µM
  relative viability: 0.597
[9]; first compound 0.003162 µM
  relative viability: 0.531
[9]; first compound 0.01 µM
  relative viability: 0.601
[9]; first compound 0.03162 µM
  relative viability: 0.508
[9]; first compound 0.1 µM
  relative viability: 0.408
[10]; first compound 0.001 µM
  relative viability: 0.195
[10]; first compound 0.003162 µM
  relative viability: 0.274
[10]; first compound 0.01 µM
  relative viability: 0.262
[10]; first compound 0.03162 µM
  relative viability: 0.101
[10]; first compound 0.1 µM
  relative viability: 0.0706

## Cc1csc(=NC2CCCCC2)n1/N=C/c1ccc(O)c(O)c1O [MIM1] + CCNC(=O)c1noc(-c2cc(C(C)C)c(O)cc2O)c1-c1ccc(CN2CCOCC2)cc1 [Luminespib] (partner 0.01 µM)
[2]; first compound 0.2 µM
  relative viability: 0.68
[2]; first compound 0.6325 µM
  relative viability: 0.92
[2]; first compound 2 µM
  relative viability: 0.654
[2]; first compound 6.325 µM
  relative viability: 0.543
[2]; first compound 20 µM
  relative viability: 0.403
[4]; first compound 0.2 µM
  relative viability: 1
[4]; first compound 0.6325 µM
  relative viability: 1.06
[4]; first compound 2 µM
  relative viability: 1.03
[4]; first compound 6.325 µM
  relative viability: 0.877
[4]; first compound 20 µM
  relative viability: 1.02
[7]; first compound 0.2 µM
  relative viability: 0.338
[7]; first compound 0.6325 µM
  relative viability: 0.338
[7]; first compound 2 µM
  relative viability: 0.32
[7]; first compound 6.325 µM
  relative viability: 0.271
[7]; first compound 20 µM
  relative viability: 0.268
[9]; first compound 0.2 µM
  relative viability: 0.522
[9]; first compound 0.6325 µM
  relative viability: 0.472
[9]; first compound 2 µM
  relative viability: 0.437
[9]; first compound 6.325 µM
  relative viability: 0.446
[9]; first compound 20 µM
  relative viability: 0.404
[10]; first compound 0.2 µM
  relative viability: 0.147
[10]; first compound 0.6325 µM
  relative viability: 0.271
[10]; first compound 2 µM
  relative viability: 0.18
[10]; first compound 6.325 µM
  relative viability: 0.198
[10]; first compound 20 µM
  relative viability: 0.0924

— the supplement of paper PMC10307832
